System: P12-Ichikawa
Assay: cell viability relative to DMSO control; higher = less cytotoxic
Settings: 48 h
Method in brief: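 NOMO1, SEM and P12-Ichikawa leukemia cells spent at least four passages adapting to each medium before use. They were seeded at 500 cells/well (NOMO1, SEM) or 1000 cells/well (P12-Ichikawa) in 5 μl in 1536-well plates and pin-dosed with library compounds in DMSO at 11 threefold steps from 47 μM down to 0.79 nM. After 48 h at 37°C, CellTiter-Glo One luminescence was read. Viability is reported as a percentage of the DMSO wells on each plate, with cell-free wells as background.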

[1] = HPLM + 10% dialyzed FBS, 0.000781 µM
[2] = HPLM + 10% dialyzed FBS, 0.00234 µM
[3] = HPLM + 10% dialyzed FBS, 0.00702 µM
[4] = HPLM + 10% dialyzed FBS, 0.0211 µM
[5] = HPLM + 10% dialyzed FBS, 0.0632 µM
[6] = HPLM + 10% dialyzed FBS, 0.19 µM
[7] = HPLM + 10% dialyzed FBS, 0.569 µM
[8] = HPLM + 10% dialyzed FBS, 1.71 µM
[9] = HPLM + 10% dialyzed FBS, 5.12 µM
[10] = HPLM + 10% dialyzed FBS, 15.4 µM
[11] = HPLM + 10% dialyzed FBS, 46.1 µM
[12] = RPMI 5 mM glucose + 10% FBS, 0.000781 µM
[13] = RPMI 5 mM glucose + 10% FBS, 0.00234 µM
[14] = RPMI 5 mM glucose + 10% FBS, 0.00702 µM
[15] = RPMI 5 mM glucose + 10% FBS, 0.0211 µM
[16] = RPMI 5 mM glucose + 10% FBS, 0.0632 µM
[17] = RPMI 5 mM glucose + 10% FBS, 0.19 µM
[18] = RPMI 5 mM glucose + 10% FBS, 0.569 µM
[19] = RPMI 5 mM glucose + 10% FBS, 1.71 µM
[20] = RPMI 5 mM glucose + 10% FBS, 5.12 µM
[21] = RPMI 5 mM glucose + 10% FBS, 15.4 µM
[22] = RPMI 5 mM glucose + 10% FBS, 46.1 µM
[23] = RPMI 5 mM glucose + 10% dialyzed FBS, 0.000781 µM
[24] = RPMI 5 mM glucose + 10% dialyzed FBS, 0.00234 µM
[25] = RPMI 5 mM glucose + 10% dialyzed FBS, 0.00702 µM
[26] = RPMI 5 mM glucose + 10% dialyzed FBS, 0.0211 µM
[27] = RPMI 5 mM glucose + 10% dialyzed FBS, 0.0632 µM
[28] = RPMI 5 mM glucose + 10% dialyzed FBS, 0.19 µM
[29] = RPMI 5 mM glucose + 10% dialyzed FBS, 0.569 µM
[30] = RPMI 5 mM glucose + 10% dialyzed FBS, 1.71 µM
[31] = RPMI 5 mM glucose + 10% dialyzed FBS, 5.12 µM
[32] = RPMI 5 mM glucose + 10% dialyzed FBS, 15.4 µM
[33] = RPMI 5 mM glucose + 10% dialyzed FBS, 46.1 µM

Row | SMILES | cell viability [1] [%] | cell viability [2] [%] | cell viability [3] [%] | cell viability [4] [%] | cell viability [5] [%] | cell viability [6] [%] | cell viability [7] [%] | cell viability [8] [%] | cell viability [9] [%] | cell viability [10] [%] | cell viability [11] [%] | cell viability [12] [%] | cell viability [13] [%] | cell viability [14] [%] | cell viability [15] [%] | cell viability [16] [%] | cell viability [17] [%] | cell viability [18] [%] | cell viability [19] [%] | cell viability [20] [%] | cell viability [21] [%] | cell viability [22] [%] | cell viability [23] [%] | cell viability [24] [%] | cell viability [25] [%] | cell viability [26] [%] | cell viability [27] [%] | cell viability [28] [%] | cell viability [29] [%] | cell viability [30] [%] | cell viability [31] [%] | cell viability [32] [%] | cell viability [33] [%]
1 | CCn1c(C(=O)N(C2CC2)C2CC2)cc2c3c(ncn3C)c(Nc3cc(C)n(C)n3)nc21 | 88.3 | 99.8 | 99.5 | 104 | 109 | 117 | 110 | 108 | 107 | 107 | 86.5 | 92.7 | 116 | 108 | 108 | 118 | 107 | 111 | 110 | 105 | 112 | 91.7 | 90.4 | 100 | 97.6 | 96.4 | 102 | 97.2 | 98 | 98.6 | 102 | 107 | 87.6
2 | CC[C@H](CO)Nc1nc(NCc2ccccc2)c2ncn(C(C)C)c2n1 | 85.4 | 93.9 | 95.1 | 91.7 | 94.8 | 95.1 | 93.1 | 86.4 | 91.6 | 85.2 | 79.5 | 91.2 | 93.1 | 93.2 | 92.9 | 98.1 | 95.2 | 95.9 | 82.8 | 86.4 | 77.6 | 78.2 | 91.2 | 94.4 | 95.5 | 83.9 | 89.5 | 94.3 | 92 | 88.7 | 87.3 | 86.6 | 82
3 | NC(=O)c1nnn(Cc2cc(Cl)c(C(=O)c3ccc(Cl)cc3)c(Cl)c2)c1N |  |  |  |  |  |  |  |  |  |  |  | 122 | 137 | 122 | 130 | 128 | 128 | 136 | 120 | 120 | 122 | 70.9 | 122 | 128 | 122 | 134 | 123 | 119 | 131 | 121 | 109 | 118 | 68
4 | COc1cccc(OC)c1-c1cc(C(=O)NC2(C(=O)O)C3CC4CC(C3)CC2C4)nn1-c1ccnc2cc(Cl)ccc12 (centres undefined) | 115 | 118 | 112 | 116 | 114 | 109 | 114 | 113 | 101 | 94.7 | 86.1 | 113 | 119 | 126 | 118 | 119 | 99.4 | 126 | 110 | 115 | 112 | 97.5 | 113 | 118 | 119 | 114 | 117 | 110 | 101 | 110 | 107 | 108 | 99.9
5 | c1cc2c(cc1[C@H]1OC[C@H]3[C@@H]1CO[C@@H]3c1ccc3c(c1)OCO3)OCO2 | 122 | 120 | 118 | 124 | 122 | 129 | 133 | 122 | 119 | 128 | 122 |  |  |  |  |  |  |  |  |  |  |  |  |  |  |  |  |  |  |  |  |  | 
6 | Cc1cnc(Nc2cccc(CN3CCOCC3)c2)nc1Nc1cccc([S+](=O)([O-])NC(C)(C)C)c1 | 90 | 91.9 | 90.5 | 96.2 | 91.9 | 89.3 | 95.1 | 92.2 | 44 | 91.5 | 54.4 | 91 | 87.7 | 85.9 | 92.2 | 89.8 | 88.7 | 80.8 | 86.4 | 20.5 | 88.2 | 73.4 | 80.8 | 83.2 | 82.6 | 79.7 | 85.9 | 82.3 | 85.4 | 81.4 | 41.7 | 76.8 | 53.1
7 | O=C(Nc1ccccc1)Nc1ccc(-c2ccc(C(=O)[C@@H]3CCC[C@H]3C(=O)O)cc2)cc1 | 105 | 102 | 117 | 113 | 113 | 122 | 96.7 | 105 | 90.8 | 87 | 79 | 110 | 117 | 100 | 113 | 116 | 114 | 118 | 102 | 92.8 | 73 | 86.2 | 123 | 121 | 116 | 104 | 122 | 122 | 115 | 114 | 89.6 | 83.9 | 83.1
8 | NC(=O)N1CCC(CC(=O)N2CCC([C@H]3c4ncc(Br)cc4CCc4cc(Cl)cc(Br)c43)CC2)CC1 | 107 | 116 | 114 | 114 | 114 | 108 | 96.9 | 95.2 | 78.6 | 71.9 | 52.9 | 107 | 104 | 125 | 121 | 117 | 106 | 87.6 | 85.9 | 75.4 | 62.9 | 42.5 | 108 | 108 | 118 | 112 | 109 | 110 | 94.6 | 90 | 78.9 | 69.7 | 42.2
9 | Cc1cc(/C=c2/sc3nc4ccccc4n3c2=O)c(C)n1-c1ccccc1 | 121 | 127 | 123 | 119 | 123 | 119 | 128 | 125 | 122 | 113 | 112 |  |  |  |  |  |  |  |  |  |  |  | 110 | 126 | 116 | 132 | 126 | 121 | 124 | 124 | 105 | 112 | 120
10 | CN1CCC(CNc2ccc3ncc(-c4cccc(OC(F)(F)F)c4)n3n2)CC1 | 108 | 110 | 97.3 | 109 | 105 | 103 | 108 | 102 | 97.4 | 92.8 | 5.65 | 100 | 101 | 89.4 | 102 | 100 | 102 | 99.8 | 94.7 | 89.1 | 79.7 | 4.48 | 92.7 | 92.9 | 92.2 | 95.4 | 94.7 | 92.4 | 101 | 92.3 | 85.9 | 84.3 | 4.77
11 | Cc1noc(N[S+](=O)([O-])c2ccc(N)cc2)c1C | 99.4 | 106 | 104 | 112 | 115 | 109 | 111 | 114 | 109 | 102 | 117 | 85.2 | 102 | 97.6 | 91.2 | 99.8 | 105 | 98.1 | 94.1 | 102 | 96.8 | 100 | 92.4 | 90.5 | 99.5 | 89.7 | 106 | 106 | 108 | 99.3 | 101 | 94.1 | 98.9
12 | CCCCCN(C)CCC(O)(P(=O)([O-])O)P(=O)(O)O | 88 | 88.1 | 87.1 | 96 | 95 | 97.6 | 99.5 | 92.9 | 93.4 | 99.2 | 92.4 | 81.4 | 86.5 | 91.3 | 95.6 | 85.8 | 86.6 | 94 | 89.7 | 91.3 | 92.6 | 83.4 | 79 | 85.2 | 81.1 | 95.3 | 88.9 | 84.5 | 88.9 | 79.4 | 86.1 | 87.8 | 86.9
13 | O=C(NOCC1CC1)c1ccc(F)c(F)c1Nc1ccc(I)cc1Cl | 92.8 | 98 | 104 | 110 | 114 | 106 | 101 | 94.8 | 84.3 | 82.2 | 79.3 | 96.6 | 102 | 105 | 103 | 110 | 98 | 97.1 | 88.7 | 74 | 60.9 | 70 | 92.9 | 106 | 98 | 112 | 109 | 114 | 110 | 112 | 91.8 | 71 | 82.6
14 | COC(=O)[C@H](Cc1ccccc1)NC(=O)[C@@H](N)CC(=O)O | 112 | 119 | 120 | 115 | 119 | 108 | 112 | 112 | 106 | 101 | 100 | 110 | 110 | 113 | 119 | 115 | 125 | 107 | 109 | 102 | 102 | 108 | 114 | 109 | 125 | 112 | 120 | 110 | 112 | 110 | 107 | 104 | 101
15 | Cc1nnc(C(=O)NC(C)(C)c2nc(C(=O)NCc3ccc(F)cc3)c(O)c(=O)n2C)o1 | 114 | 110 | 104 | 108 | 109 | 103 | 109 | 90.9 | 102 | 102 | 107 | 107 | 110 | 99.3 | 106 | 102 | 104 | 107 | 95.1 | 103 | 103 | 90.7 | 97.8 | 100 | 104 | 103 | 98.7 | 95.5 | 107 | 94.4 | 95.2 | 91.5 | 92.9
16 | Cc1ccc(C(=O)Nc2ccc([S+](=O)([O-])O)c3cc([S+](=O)([O-])O)cc([S+](=O)([O-])O)c23)cc1NC(=O)c1cccc(NC(=O)Nc2cccc(C(=O)Nc3cc(C(=O)Nc4ccc([S+](=O)([O-])O)c5cc([S+](=O)([O-])O)cc([S+](=O)([O-])O)c45)ccc3C)c2)c1 | 97.5 | 104 | 92.8 | 95.4 | 96.4 | 87.2 | 77.3 | 81.5 | 57.1 | 55.2 | 47 | 97.3 | 89.2 | 99.6 | 102 | 88.6 | 82.2 | 92.4 | 81.1 | 60.5 | 53.4 | 44.3 | 99.1 | 94.9 | 93.5 | 94 | 89.3 | 88.8 | 80 | 75.9 | 56.4 | 54 | 42.9

From the supplement of paper PMC11451515
